In US11882858B2, “Composition for skin whitening comprising β-mangostin as effective ingredient” (INDUSTRY-ACADEMIC COOPERATION FOUNDATION GYEONGSANG …, priority 2015, dated 2024):
Where a SMILES comes first, the peptide text is derived from it. The star is where a group is joined. Cbz = O=C(OCc1ccccc1)*

How the values were obtained:
tyrosinase [1] = assay: Tyrosinase expression (RT-PCR and Western blotting); assay type: cell-based, mouse; conditions: for effect on the suppressed tyrosinase expression induced by β-mangostin: autophagy inhibitor with β-mangostin and α-MSH
Protocol: (§1) Total RNA was extracted from the cells by using RiboEX reagent (GeneAll Biotechnology Co. Ltd, Seoul, South Korea). cDNA was synthesized by using 2 μg of RNA based on reverse transcription (Thermo Scientific, Waltham, MA, USA). PCR was carried out by using Solg™ e-Taq DNA polymerase kit (SolGent Co. Ltd, Daejeon, South Korea), and each primer described in the following Table 1 was used for PCR.
Total proteins were extracted by using RIPA dissolving buffer (50 mM Tris-HCl (pH 8.0), 150 mM NaCl, 1% NP-40, 0.5% sodium dioxycholate and 0.1% SDS). […] The membrane was then incubated with 5% skim milk and primary antibody for 1 hour in TBS (tris-buffer saline) containing 0.1% Tween 20. The antibodies against tyrosinase and TRP-1 were purchased from Santa Cruz Biotechnology, USA. LC3B, p62 and ATG5 were purchased from CST (Cell Signaling Technology, USA). The antibody against PMEL was purchased from Abcam (UK). Signal detection was made based on enhanced chemiluminescence (Bio-Rad).

[2] = test system: mRFP-EGFP-LC3B in B16F10 cells; assay: Melanosome autophagy in cells expressing mRFP-EGFP-LC3B (confocal microscopy); assay type: cell-based, mouse; conditions: β-mangostin (10 μM) and α-MSH (1 μM)
Protocol: B16F10 cells were infected with mRFP-EGFP-LC3B (Kimura et al., 2007, Autophagy 3, 452-60) by using Lipofectamine 3000 (Invitrogen, Carlsbad, CA, USA). The cells were treated with β-mangostin (10 μM) and α-MSH (1 μM), and analysis was made by using confocal microscopy (FV1000, Olympus, Tokyo, Japan).
In order to confirm whether or not β-mangostin can induce the autophagy of a melanosome, B16F10 cells were infected with a construct expressing mRFP-EGFP-LC3B, and then treated with β-mangostin and α-MSH. […] On the other hand, the number of red spots increased in the group treated with both α-MSH and β-mangostin while total number of spots has decreased. If an autophagosome fuses with a lysosome only after wrapping the melanosome, the intra-autophagosomal pH should decrease, and EGFP should be abolished under acidic pH conditions. Accordingly, it was found from the above results that, due to the autophagy enhanced by β-mangostin, degradation of a melanosome has occurred.

[3] = test system: B16F10 mouse melanoma cells; assay: Removal of melanin previously produced by α-MSH; assay type: cell-based; conditions: treatment after 2 days of α-MSH
Protocol: In order to determine the activity of β-mangostin for removing melanin which has been previously produced by α-MSH as a melanin cell stimulating hormone, B16F10 cells were treated for 2 days with α-MSH to have synthesis of melanin. Thereafter, the cells were treated with β-mangostin of the present invention and 3-MA, which is an autophagy inhibitor.

[4] = test system: p62 and PMEL (premelanosome protein); assay: p62 and PMEL expression (Western blot); assay type: cell-based, mouse; conditions: for effect on the suppressed expression of p62 and PMEL induced by β-mangostin: autophagy inhibitor with β-mangostin and α-MSH
Protocol: (§2) Total proteins were extracted by using RIPA dissolving buffer (50 mM Tris-HCl (pH 8.0), 150 mM NaCl, 1% NP-40, 0.5% sodium dioxycholate and 0.1% SDS). The proteins were separated on a 10 to 15% SDS-PAGE, and transferred to a PVDF membrane (Millipore, Billerica, MA, USA). The membrane was then incubated with 5% skim milk and primary antibody for 1 hour in TBS (tris-buffer saline) containing 0.1% Tween 20. The antibodies against tyrosinase and TRP-1 were purchased from Santa Cruz Biotechnology, USA. LC3B, p62 and ATG5 were purchased from CST (Cell Signaling Technology, USA). The antibody against PMEL was purchased from Abcam (UK). Signal detection was made based on enhanced chemiluminescence (Bio-Rad).
Autophagy occurs through a fusion process between an autophagosome and a lysosome. In order to confirm whether or not the depigmentation effect induced by β-mangostin occurs through lysosome-dependent protein degradation during the autophagy process, B16F10 cells were treated with bafilomycin A1 (liquid vacuole type, H^+-ATPase inhibitor) which inhibits β-mangostin, α-MSH, and lysosome activity. As a result, as it is shown in FIG. 7, bafilomycin A1 inhibits, at the aforementioned conditions, the suppressed tyrosinase expression that has been induced by β-mangostin.

tyrosinase [5] = biological target: T1, tyrosinase (Mus musculus, UniProt P11344); assay: Tyrosinase activity (L-DOPA oxidation) in cell lysates; assay type: cell-based
T1 construct: The cultured cells were collected and dissolved with 1% Triton X-100 solution for 1 hour on ice; endogenous in cells; host or cells: B16F10 mouse melanoma cells
T1 sequence (P11344 19-533): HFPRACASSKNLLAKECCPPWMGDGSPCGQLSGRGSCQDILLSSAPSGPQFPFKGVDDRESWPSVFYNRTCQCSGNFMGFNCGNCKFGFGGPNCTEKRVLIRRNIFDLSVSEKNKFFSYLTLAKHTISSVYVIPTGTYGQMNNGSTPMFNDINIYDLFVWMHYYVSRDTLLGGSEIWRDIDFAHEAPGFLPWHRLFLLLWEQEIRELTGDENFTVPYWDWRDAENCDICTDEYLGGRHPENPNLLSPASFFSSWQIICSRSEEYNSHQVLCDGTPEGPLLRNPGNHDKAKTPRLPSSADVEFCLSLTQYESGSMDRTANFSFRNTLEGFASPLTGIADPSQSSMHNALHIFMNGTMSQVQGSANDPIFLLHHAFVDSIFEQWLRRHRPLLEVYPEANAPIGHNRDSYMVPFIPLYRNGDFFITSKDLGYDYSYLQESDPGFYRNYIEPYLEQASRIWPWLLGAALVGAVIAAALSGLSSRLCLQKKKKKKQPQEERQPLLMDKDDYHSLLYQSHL
Protocol: Tyrosinase activity was measured by slightly modifying the method by Ohgushi et al. (Ohgushi et al., 2009, Biological & Pharmaceutical Bulletin 32, 308-10). Specifically, B16F10 cells were inoculated into a 6-well plate and cultured for 24 hours. Thereafter, the cells were treated with β-mangostin and α-MSH, each at 1 μM, followed by culture for 48 hours. The cultured cells were collected and dissolved with 1% Triton X-100 solution for 1 hour on ice. The proteins were cultured with 100 μl (2 mg/ml) L-DOPA in a 5% CO2 humidifying incubator at 37° C. condition. By using a microplate reader (Bio-Rad), absorbance at 490 nm was measured.

[6] = test system: B16F10 mouse melanoma cells; assay: Suppression of α-MSH-induced pigmentation (cell pellet color); assay type: cell-based; conditions: co-treatment with α-MSH, 72 hours
Protocol: In order to see whether or not β-mangostin can suppress the pigmentation induced by α-MSH (melanocyte-stimulating hormone), B16F10 cells were treated with α-MSH and β-mangostin followed by incubation for 72 hours. As a result, as it is shown in FIG. 3, cell pellets were turned into black color when the treatment is carried out with α-MSH only. […] Namely, it was shown that β-mangostin suppresses the pigmentation induced by α-MSH. […] In particular, when the treatment is carried out with β-mangostin at 5 μM, which is the same concentration as α-mangostin, melanin content was reduced by 40% or so.

[7] = test system: B16F10 mouse melanoma cells; assay: Melanin content in α-MSH-treated cells; assay type: cell-based; conditions: for change in melanin content / melanin content reduction: co-treatment with α-MSH, compared to α-MSH only; for melanin content reduction: 5 μM; for influence on melanin content: co-treatment of inhibitor with β-mangostin and α-MSH
Protocol: Measurement of melanin content was carried out by slightly modifying the method by Yang et al. (Yang et al., 2006, Acta pharmacologica Sinica 27, 1467-73). Specifically, B16F10 cells were inoculated into a 6-well plate and cultured for 24 hours. […] The cultured cells were collected after being subjected to trypsinization and dissolution in 1 N NaOH containing DMSO for 24 hours at 65° C. By using a microplate reader (Bio-Rad), melanin content was measured at 415 nm.
As a result, as it is shown in FIG. 3, cell pellets were turned into black color when the treatment is carried out with α-MSH only. […] Namely, it was shown that β-mangostin suppresses the pigmentation induced by α-MSH. […] In particular, when the treatment is carried out with β-mangostin at 5 μM, which is the same concentration as α-mangostin, melanin content was reduced by 40% or so.

[8] = test system: TRP-1 (tyrosinase-related protein-1); assay: TRP-1 expression (RT-PCR and Western blotting); assay type: cell-based, mouse; conditions: B16F10 cells
Protocol: as §1, §2
In order to confirm the whitening effect of β-mangostin, RT-PCR and Western blotting analysis were carried out for tyrosinase and TRP-1.

[9] = test system: B16F10 mouse melanoma cells; assay: Cell viability (MTT analysis); assay type: cell-based; conditions: 24 hours, at 20 μM and 40 μM
Protocol: B16F10 cells were cultured for 24 hours in a 96-well plate. […] Subsequently, a MTT solution (5 μg/mL) was added to the cells, which were then cultured for 3 hours. After removing the medium and treating the cells with DMSO, the cells were cultured for 20 minutes. By using a microplate reader (Bio-Rad), absorbance at 595 nm was measured.
Then, based on MTT […]-(4,5-dimethylthiazol-2-yl)-2,5-diphenyltetrazolium bromide) analysis, cell viability was determined.

[10] = siATG5, β-mangostin (10 μM) and α-MSH (1 μM), 48 hours
[11] = treatment after 2 days of α-MSH (melanin previously produced)

CO/C1=C\C(C)=C\[C@@H](C)[C@@H](O)[C@@H](C)C/C(C)=C/C=C/[C@H](OC)[C@@H]([C@@H](C)[C@@H](O)[C@H](C)[C@@]2(O)C[C@@H](O)[C@H](C)[C@@H](C(C)C)O2)OC1=O [bafilomycin A1]
effect on the suppressed tyrosinase expression induced by β-mangostin (tyrosinase [1]): inhibits

COc1cc2oc3cc(O)c(OC)c(CC=C(C)C)c3c(=O)c2c(O)c1CC=C(C)C [β-mangostin]
expression amount of tyrosinase induced by α-MSH (tyrosinase [1]; RT-PCR and Western blotting, B16F10 cells): effectively lowered | expression of tyrosinase reduced by β-mangostin, after knockdown of ATG5 (tyrosinase [1]; [10]): increased again | expression amount of tyrosinase (tyrosinase [1]; [11]): lower a significant expression amount | number of red spots (mRFP-EGFP-LC3B) [2]: increased | total number of spots (mRFP-EGFP-LC3B) [2]: decreased | content of previously formed melanin [3]: lower effectively | expression of p62 and PMEL reduced by β-mangostin, after knockdown of ATG5 [4, 10]: increased again | expression amount of PMEL [4, 11]: lower a significant expression amount | oxidation level of L-DOPA (tyrosinase [5]; co-treatment with α-MSH, concentration dependent): effectively reduced | cell pellet color [6]: changed from black color to white color | change in melanin content [7]: effectively reduced | melanin content reduction [7]: ~40% | melanin content level reduced by β-mangostin, after knockdown of ATG5 [7, 10]: increased again | expression amount of TRP-1 induced by α-MSH [8]: effectively lowered

Cn1cnc(N)c2ncnc1-2 [3-methyladenine]
effect on the suppressed tyrosinase expression induced by β-mangostin (tyrosinase [1]): inhibited | effect on the suppressed expression of p62 and PMEL induced by β-mangostin [4]: inhibit the suppressed expression | influence on melanin content [7]: starts to increase again

CC(C)C[C@@H](C=O)NC(=O)[C@H](CC(C)C)NC(=O)[C@H](CC(C)C)NC(=O)OCc1ccccc1 [MG132] (Cbz-Leu-Leu-Leu-aldehyde)
tyrosinase expression amount (tyrosinase [1]; co-treatment of inhibitor with β-mangostin and α-MSH (proteasome dependence)): did not increase | influence on L-DOPA oxidation (tyrosinase [5]; co-treatment of inhibitor with β-mangostin and α-MSH): no influence | influence on melanin content [7]: no influence

COc1c(O)cc2oc3cc(O)c(CC=C(C)C)c(O)c3c(=O)c2c1CC=C(C)C [α-mangostin]
cytotoxicity (cell viability, MTT) [9]: potent cytotoxicity | melanin content reduction [7]: about 20%

CCN(CC)CCCC(C)Nc1ccnc2cc(Cl)ccc12 (centres unmarked) [chloroquine, reference compound]
effect on the suppressed tyrosinase expression induced by β-mangostin (tyrosinase [1]): inhibited | effect on the suppressed expression of p62 and PMEL induced by β-mangostin [4]: inhibit the suppressed expression

CC(C)=CCc1c(O)cc2oc3cc(O)c(O)c(CC=C(C)C)c3c(=O)c2c1O [γ-mangostin]
change in melanin content [7]: further increased the melanin content
